SMILES strings stand for the structures. Where a name gives a salt, the structure may show the parent alone. Read-outs that look alike come from different tables or passages of the source.

In patent publication US11168073B2, “3,3-difluoroallylamines or salts thereof and pharmaceutical compositions comprising the same” (YUHAN CORPORATION, priority 2018, dated 2021) one finds IC50 data, which are given here for eleven compounds.

Holding throughout (assay type): biochemical
Test [1] addresses T1, recombinant human MAO-A (monoamine oxidase-A) (Homo sapiens, UniProt P21397).
T1 construct: purchased Sigma-Aldrich
T1 sequence (P21397 1-527): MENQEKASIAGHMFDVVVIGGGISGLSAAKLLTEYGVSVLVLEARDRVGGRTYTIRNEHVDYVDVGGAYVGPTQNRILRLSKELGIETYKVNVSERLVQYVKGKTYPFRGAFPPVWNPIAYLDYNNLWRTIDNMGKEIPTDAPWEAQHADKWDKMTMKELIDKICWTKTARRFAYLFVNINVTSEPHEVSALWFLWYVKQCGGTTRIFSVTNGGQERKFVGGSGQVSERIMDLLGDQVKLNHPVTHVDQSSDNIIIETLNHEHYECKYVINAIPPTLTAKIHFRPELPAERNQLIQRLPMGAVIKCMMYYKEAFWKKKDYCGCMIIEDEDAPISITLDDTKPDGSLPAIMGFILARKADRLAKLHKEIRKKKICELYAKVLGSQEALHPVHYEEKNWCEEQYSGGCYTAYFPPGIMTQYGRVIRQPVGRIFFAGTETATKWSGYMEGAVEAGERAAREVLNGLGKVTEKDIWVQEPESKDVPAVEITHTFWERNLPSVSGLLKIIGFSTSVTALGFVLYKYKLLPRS
The test is described as follows: Activity evaluation on recombinant human MAO-A (Amplex Red/HRP-coupled assay, 0.5 mM tyramine substrate). Conditions: read-out: Inhibitory Activity (IC50, nM) MAO-A. The method in brief:
(§1)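 Using an HRP-coupled Amplex Red readout (544/590 nm, kinetic over 1–2 h), IC50 values were fitted by 4-parameter logistic model to percent decrease in signal rate against DMSO control. Compounds (1:3 dilutions, 8 points, <1% DMSO) sat 30 min at 37 °C with enzyme in pH 7.4 phosphate buffer before substrate, 200 uM Amplex Red and HRP were added.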

Another test concerns the target T2, recombinant human VAP-1 (Homo sapiens, UniProt Q16853).
T2 construct: purchased R&D systems
T2 sequence (Q16853 1-763): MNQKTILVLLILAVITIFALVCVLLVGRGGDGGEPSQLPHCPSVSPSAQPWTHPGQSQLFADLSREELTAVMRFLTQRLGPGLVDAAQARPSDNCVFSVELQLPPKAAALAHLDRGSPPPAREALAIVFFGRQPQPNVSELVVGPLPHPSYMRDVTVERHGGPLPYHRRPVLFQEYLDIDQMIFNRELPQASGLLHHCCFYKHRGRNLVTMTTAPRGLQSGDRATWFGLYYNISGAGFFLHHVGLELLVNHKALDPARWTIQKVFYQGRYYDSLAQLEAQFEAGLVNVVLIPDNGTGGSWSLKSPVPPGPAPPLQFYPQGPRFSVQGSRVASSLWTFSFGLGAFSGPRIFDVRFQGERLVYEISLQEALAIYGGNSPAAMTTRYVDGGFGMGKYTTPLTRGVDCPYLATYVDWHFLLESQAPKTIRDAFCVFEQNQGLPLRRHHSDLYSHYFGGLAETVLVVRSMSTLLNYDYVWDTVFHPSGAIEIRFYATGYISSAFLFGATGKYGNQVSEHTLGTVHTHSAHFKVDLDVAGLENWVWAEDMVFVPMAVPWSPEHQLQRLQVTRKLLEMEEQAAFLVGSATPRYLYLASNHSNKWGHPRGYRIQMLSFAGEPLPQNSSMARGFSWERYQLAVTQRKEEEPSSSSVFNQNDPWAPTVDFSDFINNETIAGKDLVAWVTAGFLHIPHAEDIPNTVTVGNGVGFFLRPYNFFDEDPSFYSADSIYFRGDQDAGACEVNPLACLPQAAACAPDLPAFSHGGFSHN
Kind of test: Activity evaluation on recombinant human VAP-1 (Amplex Red/HRP-coupled hydrogen peroxide assay, benzylamine substrate). Conditions: read-out: Inhibitory Activity (IC50, nM) human VAP-1. A digest of the protocol:
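Hydrogen peroxide from benzylamine (1 mM) oxidation by human recombinant VAP-1 detected via HRP-coupled Amplex Red (200 uM) fluorescence, kinetic over 1–2 h. Enzyme and compound preincubated 30 min at 37 °C, pH 7.4 phosphate; 8-point dose response, signal-rate decrease versus DMSO control fitted to four-parameter logistic for IC50.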

Test [2] has as its target T3, recombinant human DAO (diamine oxidase) (Homo sapiens, UniProt P19801).
T3 construct: purchased R&D systems
T3 sequence (P19801 20-751): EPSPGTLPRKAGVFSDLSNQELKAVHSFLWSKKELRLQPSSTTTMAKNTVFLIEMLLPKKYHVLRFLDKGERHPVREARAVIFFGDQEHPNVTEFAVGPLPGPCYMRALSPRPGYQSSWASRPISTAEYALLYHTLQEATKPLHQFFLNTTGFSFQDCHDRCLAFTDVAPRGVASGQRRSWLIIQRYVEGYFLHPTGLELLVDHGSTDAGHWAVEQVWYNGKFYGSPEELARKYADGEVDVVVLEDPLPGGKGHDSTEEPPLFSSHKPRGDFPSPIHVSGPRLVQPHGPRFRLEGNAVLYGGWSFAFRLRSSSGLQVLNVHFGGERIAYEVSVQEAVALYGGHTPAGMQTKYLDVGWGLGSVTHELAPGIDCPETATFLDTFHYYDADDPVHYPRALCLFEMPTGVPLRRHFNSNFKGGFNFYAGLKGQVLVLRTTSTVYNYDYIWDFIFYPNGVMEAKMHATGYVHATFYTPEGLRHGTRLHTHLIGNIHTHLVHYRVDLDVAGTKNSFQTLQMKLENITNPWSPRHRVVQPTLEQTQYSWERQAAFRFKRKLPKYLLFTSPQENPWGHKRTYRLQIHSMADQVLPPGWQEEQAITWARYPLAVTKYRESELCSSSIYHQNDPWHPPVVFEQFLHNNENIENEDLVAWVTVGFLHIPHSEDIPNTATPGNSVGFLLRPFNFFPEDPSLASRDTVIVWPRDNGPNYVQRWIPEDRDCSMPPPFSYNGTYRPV
Kind of test: Activity evaluation on recombinant human DAO (Amplex Red/HRP-coupled assay, 1 mM putrescine substrate). Conditions: read-out: Inhibitory Activity (IC50, nM) DAO. The method in brief: as §1

For test [3], the target named is T4, recombinant human MAO-B (monoamine oxidase-B) (Homo sapiens, UniProt P27338).
T4 construct: purchased Sigma-Aldrich
T4 sequence (P27338 1-520): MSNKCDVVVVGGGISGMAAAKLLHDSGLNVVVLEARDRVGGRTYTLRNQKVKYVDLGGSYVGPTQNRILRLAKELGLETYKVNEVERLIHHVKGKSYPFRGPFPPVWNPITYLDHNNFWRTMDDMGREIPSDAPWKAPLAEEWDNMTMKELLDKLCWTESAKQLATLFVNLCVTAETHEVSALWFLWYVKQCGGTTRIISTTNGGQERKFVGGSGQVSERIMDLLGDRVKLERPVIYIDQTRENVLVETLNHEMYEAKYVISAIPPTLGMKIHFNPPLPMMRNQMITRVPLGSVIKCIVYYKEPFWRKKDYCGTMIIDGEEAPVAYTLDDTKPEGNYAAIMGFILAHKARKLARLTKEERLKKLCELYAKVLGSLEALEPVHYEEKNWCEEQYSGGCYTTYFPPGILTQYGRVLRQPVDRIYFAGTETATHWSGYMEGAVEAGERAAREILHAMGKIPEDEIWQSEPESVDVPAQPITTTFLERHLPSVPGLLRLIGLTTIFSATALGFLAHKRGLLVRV
The test is described as follows: Activity evaluation on recombinant human MAO-B (Amplex Red/HRP-coupled assay, 1 mM benzylamine substrate). Conditions: read-out: Inhibitory Activity (IC50, nM) MAO-B. A digest of the protocol:
as §1

The mark [4] stands for this setting: recombinant human VAP-1, 30 min preincubation at 37° C., 1 mM benzylamine.
Setting [5] is: recombinant human VAP-1, benzylamine substrate.

As usually defined, the IC50 is the point on the concentration scale where inhibition reaches its midpoint. For `Cc1cc(Br)sc1Cn1cnn(CC(CN)=C(F)F)c1=O` [Example 99, 2-[2-(aminomethyl)-3,3-difluoro-allyl]-4-[(5-bromo-3-methyl-2-thienyl)methyl]-1,2,4-triazol-3-one Trifluoroacetate], the IC50 in test [1] (0.5 mM tyramine) is over 100000 nM; at recombinant human VAP-1 (setting [4]) it was 9.3 nM; in test [2] (1 mM putrescine) it was over 100000 nM; in test [3] (1 mM benzylamine), 21000 nM.
As for `Cn1cc(-c2ccc(Cn3cnn(CC(CN)=C(F)F)c3=O)s2)ccc1=O` [Example 121, 5-[5-[[1-[2-(aminomethyl)-3,3-difluoro-allyl]-5-oxo-1,2,4-triazol-4-yl]methyl]-2-thienyl]-1-methyl-pyridin-2-one Trifluoroacetate], the 50% inhibitory concentration (IC50) in test [1] (0.5 mM tyramine) is over 100000 nM; at recombinant human VAP-1 (setting [4]) it was 0.9 nM; in test [2] (1 mM putrescine), over 10000 nM; in test [3] (1 mM benzylamine), 40000 nM.
On to `CN1C(=O)CCc2cc(-c3cnc(-n4cnn(CC(CN)=C(F)F)c4=O)cn3)ccc21` [Example 94, 6-[5-[1-[2-(aminomethyl)-3,3-difluoro-allyl]-5-oxo-1,2,4-triazol-4-yl]pyrazin-2-yl]-1-methyl-3,4-dihydro-1H-quinolin-2-one Trifluoroacetate], for which the IC50 in test [1] (0.5 mM tyramine) is over 100000 nM; on recombinant human VAP-1 (setting [4]) it was 0.2 nM; in test [2] (1 mM putrescine) it was 4 nM; in test [3] (1 mM benzylamine), 860 nM.
In the case of `COCCNc1ncc(-c2ccc(Cn3cnn(CC(CN)=C(F)F)c3=O)s2)cn1` [Example 118, 2-[2-(aminomethyl)-3,3-difluoro-allyl]-4-[[5-[2-(2-methoxyethylamino)pyrimidin-5-yl]-2-thienyl]methyl]-1,2,4-triazol-3-one Trifluoroacetate], the IC50 in test [1] (0.5 mM tyramine) is over 100000 nM; on recombinant human VAP-1 (setting [4]), 3.5 nM; in test [2] (1 mM putrescine) it was 40000 nM; in test [3] (1 mM benzylamine), over 100000 nM.
Regarding `Cc1cc(C#Cc2cnn(C)c2)cnc1-n1cnn(CC(CN)=C(F)F)c1=O` [Example 240, 2-[2-(aminomethyl)-3,3-difluoro-allyl]-4-[3-methyl-5-[2-(1-methylpyrazol-4-yl)ethynyl]-2-pyridyl]-1,2,4-triazol-3-one trifluoroacetate], the IC50 was over 100000 nM in test [1] (0.5 mM tyramine substrate), 1 nM at recombinant human VAP-1 (setting [5]), 30000 nM in test [2] (1 mM putrescine substrate) and 15000 nM in test [3] (1 mM benzylamine substrate).
In the case of `NCC(Cn1ncn(Cc2ccc(C#Cc3ccc(N4CCOCC4)nc3)s2)c1=O)=C(F)F` [Example 163, 2-[2-(aminomethyl)-3,3-difluoro-allyl]-4-[[5-[2-(6-morpholino-3-pyridyl)ethynyl]-2-thienyl]methyl]-1,2,4-triazol-3-one Trifluoroacetate], the IC50 in test [1] (0.5 mM tyramine) is over 100000 nM; on recombinant human VAP-1 (setting [4]), 0.4 nM; in test [2] (1 mM putrescine), 8400 nM; in test [3] (1 mM benzylamine), 31000 nM.
As to `Cc1cc(Br)ncc1-n1cnn(CC(CN)=C(F)F)c1=O` [Example 12, 2-[2-(aminomethyl)-3,3-difluoro-allyl]-4-(6-bromo-4-methyl-3-pyridyl)-1,2,4-triazol-3-one Trifluoroacetate], the IC50 was over 100000 nM in test [1] (0.5 mM tyramine), 43 nM on recombinant human VAP-1 (setting [4]), 55000 nM in test [2] (1 mM putrescine) and over 10000 nM in test [3] (1 mM benzylamine).
Regarding `CC(C)n1cc(-c2csc(Cn3cnn(CC(CN)=C(F)F)c3=O)c2)ccc1=O` [Example 187, 5-[5-[[1-[2-(aminomethyl)-3,3-difluoro-allyl]-5-oxo-1,2,4-triazol-4-yl]methyl]-3-thienyl]-1-isopropyl-pyridin-2-one Trifluoroacetate], the IC50 was over 100000 nM in test [1] (0.5 mM tyramine substrate), 1.1 nM on recombinant human VAP-1 (setting [5]), 8900 nM in test [2] (1 mM putrescine substrate) and over 100000 nM in test [3] (1 mM benzylamine substrate).
Take `CCn1cc(-c2ccc(-c3ccc(Cn4cnn(CC(CN)=C(F)F)c4=O)s3)cc2)cn1` [Example 286, 2-[2-(aminomethyl)-3,3-difluoro-allyl]-4-[[5-[4-(1-ethylpyrazol-4-yl)phenyl]-2-thienyl]methyl]-1,2,4-triazol-3-one Trifluoroacetate]: the IC50 was found to be 2620 nM in test [1] (0.5 mM tyramine substrate), 1.4 nM at recombinant human VAP-1 (setting [5]), 2480 nM in test [2] (1 mM putrescine substrate) and 3230 nM in test [3] (1 mM benzylamine substrate).
As to `NCC(Cn1ncn(-c2cc(-c3ccc4c(c3)OCO4)ccn2)c1=O)=C(F)F` [Example 58, 2-[2-(aminomethyl)-3,3-difluoro-allyl]-4-[4-(1,3-benzodioxol-5-yl)-2-pyridyl]-1,2,4-triazol-3-one Trifluoroacetate], the IC50 is over 100000 nM in test [1] (0.5 mM tyramine), 2.2 nM at recombinant human VAP-1 (setting [4]), 1700 nM in test [2] (1 mM putrescine) and over 100000 nM in test [3] (1 mM benzylamine).
Turning to `Cc1cc(C#Cc2cnc3c(c2)OCCN3)cnc1-n1cnn(CC(CN)=C(F)F)c1=O` [Example 245, 2-[2-(aminomethyl)-3,3-difluoro-allyl]-4-[5-[2-(3,4-dihydro-2H-pyrido[3,2-b][1,4]oxazin-7-yl)ethynyl]-3-methyl-2-pyridyl]-1,2,4-triazol-3-one ditrifluoroacetate], the concentration for half-maximal inhibition (IC50) in test [1] (0.5 mM tyramine substrate) was over 100000 nM; on recombinant human VAP-1 (setting [5]), 2.7 nM; in test [2] (1 mM putrescine substrate) it was 14000 nM; in test [3] (1 mM benzylamine substrate), 15000 nM.
